The results in this text go back to US10874745B2, “Antimicrobial peptides and methods of treating gram-negative pathogens: polar and non-polar face analogs” (priority 2017, dated 2020).

≈ marks a conversion by molar mass, not a printed value.

The subject of data set [1] is human red blood cells. Kind of data set: Hemolytic activity. It counts as cell-based. Particulars: 18 h. Here is the method: Hemoglobin release was determined spectrophotometrically at 570 nm. […] […] […] With the peptides used in this study the inventors used the HC30/MIC ratio value to calculate the therapeutic index.
In data set [2] the test system is A. baumannii strain 649. It counts as cell-based, Acinetobacter baumannii. An excerpt: A critical component to the systemic use of AMPs to treat bacterial infections is the extent of AMP binding to serum proteins. In addition, since only the unbound AMP is available to interact with the therapeutic target, the extent of serum binding can have significant effects on efficacy. […] This assay estimates the in vivo bioavailability of the AMPs. […] An increase in MIC in serum is attributed to inhibition of antimicrobial activity due to serum protein binding.

Consider `CC(=O)N[C@H](C)C(=O)N[C@H](CC(C)C)C(=O)N[C@H](CCCCN)C(=O)N[C@H](CO)C(=O)N[C@H](CC(C)C)C(=O)N[C@H](CC(C)C)C(=O)N[C@H](CCCCN)C(=O)N[C@@H](C(=O)N[C@H](CC(C)C)C(=O)N[C@H](CO)C(=O)N[C@H](CCCCN)C(=O)N[C@H](C)C(=O)N[C@H](CCCCN)C(=O)N[C@H](C)C(=O)N[C@H](C)C(=O)N[C@H](CCCCN)C(=O)N[C@H](CC(C)C)C(=O)N[C@H](CCCCN)C(=O)N[C@@H](C(=O)N[C@H](CC(C)C)C(=O)N[C@H](CC(C)C)C(=O)N[C@H](CCCCN)C(=O)N[C@H](C)C(=O)N[C@H](CC(C)C)C(=O)N[C@H](CO)C(=O)N[C@H](CCCCN)C(N)=O)[C@H](C)O)[C@H](C)O` [Peptide D33], for which the “Hemolytic activity HC30” value in data set [1] came to 89 µM. In data set [2], the “MIC, 25% human serum” value came to 0.7 µM (≈ 1.97 µg/mL) and the “MIC, No serum” value was 0.1 µM (≈ 0.281 µg/mL).
Regarding `CC(=O)N[C@H](C)C(=O)N[C@H](CC(C)C)C(=O)N[C@H](CCCCN)C(=O)N[C@H](CO)C(=O)N[C@H](CC(C)C)C(=O)N[C@H](CC(C)C)C(=O)N[C@H](CCCCN)C(=O)N[C@@H](C(=O)N[C@H](CC(C)C)C(=O)N[C@H](CO)C(=O)N[C@H](C)C(=O)N[C@H](C)C(=O)N[C@H](CCCCN)C(=O)N[C@H](CCCCN)C(=O)N[C@H](CCCCN)C(=O)N[C@H](CCCCN)C(=O)N[C@H](CC(C)C)C(=O)N[C@H](C)C(=O)N[C@@H](C(=O)N[C@H](CC(C)C)C(=O)N[C@H](CC(C)C)C(=O)N[C@H](CCCCN)C(=O)N[C@H](C)C(=O)N[C@H](CC(C)C)C(=O)N[C@H](CO)C(=O)N[C@H](CCCCN)C(N)=O)[C@H](C)O)[C@H](C)O` [Peptide D34], the “Hemolytic activity HC30” value in data set [1] was 126 µM. Moreover, in data set [2], the “MIC, 25% human serum” value came to 1.4 µM (≈ 3.93 µg/mL) and the “MIC, No serum” value is 0.2 µM (≈ 0.562 µg/mL).
Taken in the same sequence, the figures for `CC(=O)N[C@H](C)C(=O)N[C@H](CC(C)C)C(=O)N[C@H](CCCCN)C(=O)N[C@H](CO)C(=O)N[C@H](CC(C)C)C(=O)N[C@H](CC(C)C)C(=O)N[C@H](C)C(=O)N[C@@H](C(=O)N[C@H](CC(C)C)C(=O)N[C@H](CO)C(=O)N[C@H](CCCCN)C(=O)N[C@H](C)C(=O)N[C@H](CCCCN)C(=O)N[C@H](CCCCN)C(=O)N[C@H](CCCCN)C(=O)N[C@H](CCCCN)C(=O)N[C@H](CC(C)C)C(=O)N[C@H](CCCCN)C(=O)N[C@@H](C(=O)N[C@H](CC(C)C)C(=O)N[C@H](CC(C)C)C(=O)N[C@H](C)C(=O)N[C@H](C)C(=O)N[C@H](CC(C)C)C(=O)N[C@H](CO)C(=O)N[C@H](CCCCN)C(N)=O)[C@H](C)O)[C@H](C)O` [Peptide D35] were 30 µM, 1.4 µM (≈ 3.93 µg/mL) and 0.4 µM (≈ 1.12 µg/mL).
Taken in the same sequence, the figures for `CC(=O)N[C@H](C)C(=O)N[C@H](CC(C)C)C(=O)N[C@H](C)C(=O)N[C@H](CO)C(=O)N[C@H](CC(C)C)C(=O)N[C@H](CC(C)C)C(=O)N[C@H](CCCCN)C(=O)N[C@@H](C(=O)N[C@H](CC(C)C)C(=O)N[C@H](CO)C(=O)N[C@H](CCCCN)C(=O)N[C@H](C)C(=O)N[C@H](CCCCN)C(=O)N[C@H](CCCCN)C(=O)N[C@H](CCCCN)C(=O)N[C@H](CCCCN)C(=O)N[C@H](CC(C)C)C(=O)N[C@H](CCCCN)C(=O)N[C@@H](C(=O)N[C@H](CC(C)C)C(=O)N[C@H](CC(C)C)C(=O)N[C@H](CCCCN)C(=O)N[C@H](C)C(=O)N[C@H](CC(C)C)C(=O)N[C@H](CO)C(=O)N[C@H](C)C(N)=O)[C@H](C)O)[C@H](C)O` [Peptide D36] were 61 µM, 0.7 µM (≈ 1.97 µg/mL) and 0.4 µM (≈ 1.12 µg/mL).
The like results for `CC(=O)N[C@H](C)C(=O)N[C@H](CC(C)C)C(=O)N[C@H](CCCCN)C(=O)N[C@H](CO)C(=O)N[C@H](CC(C)C)C(=O)N[C@H](CC(C)C)C(=O)N[C@H](CCCCN)C(=O)N[C@@H](C(=O)N[C@H](CC(C)C)C(=O)N[C@H](CO)C(=O)N[C@H](CCCCN)C(=O)N[C@H](C)C(=O)N[C@H](C)C(=O)N[C@H](C)C(=O)N[C@H](C)C(=O)N[C@H](C)C(=O)N[C@H](CC(C)C)C(=O)N[C@H](CCCCN)C(=O)N[C@@H](C(=O)N[C@H](CC(C)C)C(=O)N[C@H](CC(C)C)C(=O)N[C@H](CCCCN)C(=O)N[C@H](C)C(=O)N[C@H](CC(C)C)C(=O)N[C@H](CO)C(=O)N[C@H](CCCCN)C(N)=O)[C@H](C)O)[C@H](C)O` [Peptide D37] were, in that order, 2.6 µM, more than 92.8 µM and 2.9 µM (≈ 7.81 µg/mL).
As to `CC(=O)N[C@H](C)C(=O)N[C@H](CC(C)C)C(=O)N[C@H](CCCCN)C(=O)N[C@H](CO)C(=O)N[C@H](CC(C)C)C(=O)N[C@H](CC(C)C)C(=O)N[C@H](CCCCN)C(=O)N[C@@H](C(=O)N[C@H](CC(C)C)C(=O)N[C@H](CO)C(=O)N[C@H](C)C(=O)N[C@H](C)C(=O)N[C@H](C)C(=O)N[C@H](CCCCN)C(=O)N[C@H](CCCCN)C(=O)N[C@H](C)C(=O)N[C@H](CC(C)C)C(=O)N[C@H](C)C(=O)N[C@@H](C(=O)N[C@H](CC(C)C)C(=O)N[C@H](CC(C)C)C(=O)N[C@H](CCCCN)C(=O)N[C@H](C)C(=O)N[C@H](CC(C)C)C(=O)N[C@H](CO)C(=O)N[C@H](CCCCN)C(N)=O)[C@H](C)O)[C@H](C)O` [Peptide D38], the “Hemolytic activity HC30” value in data set [1] amounted to 2.8 µM. In data set [2], the “MIC, 25% human serum” value was more than 92.8 µM and the “MIC, No serum” value is 0.7 µM (≈ 1.89 µg/mL).
The like results for `CC(=O)N[C@H](C)C(=O)N[C@H](CC(C)C)C(=O)N[C@H](CCCCN)C(=O)N[C@H](CO)C(=O)N[C@H](CC(C)C)C(=O)N[C@H](CC(C)C)C(=O)N[C@H](C)C(=O)N[C@@H](C(=O)N[C@H](CC(C)C)C(=O)N[C@H](CO)C(=O)N[C@H](CCCCN)C(=O)N[C@H](C)C(=O)N[C@H](C)C(=O)N[C@H](CCCCN)C(=O)N[C@H](CCCCN)C(=O)N[C@H](C)C(=O)N[C@H](CC(C)C)C(=O)N[C@H](CCCCN)C(=O)N[C@@H](C(=O)N[C@H](CC(C)C)C(=O)N[C@H](CC(C)C)C(=O)N[C@H](C)C(=O)N[C@H](C)C(=O)N[C@H](CC(C)C)C(=O)N[C@H](CO)C(=O)N[C@H](CCCCN)C(N)=O)[C@H](C)O)[C@H](C)O` [Peptide D39] were, in that order, 2.8 µM, more than 92.8 µM and 1.4 µM (≈ 3.77 µg/mL).
Taken in the same sequence, the figures for `CC(=O)N[C@H](C)C(=O)N[C@H](CC(C)C)C(=O)N[C@H](C)C(=O)N[C@H](CO)C(=O)N[C@H](CC(C)C)C(=O)N[C@H](CC(C)C)C(=O)N[C@H](CCCCN)C(=O)N[C@@H](C(=O)N[C@H](CC(C)C)C(=O)N[C@H](CO)C(=O)N[C@H](CCCCN)C(=O)N[C@H](C)C(=O)N[C@H](C)C(=O)N[C@H](CCCCN)C(=O)N[C@H](CCCCN)C(=O)N[C@H](C)C(=O)N[C@H](CC(C)C)C(=O)N[C@H](CCCCN)C(=O)N[C@@H](C(=O)N[C@H](CC(C)C)C(=O)N[C@H](CC(C)C)C(=O)N[C@H](CCCCN)C(=O)N[C@H](C)C(=O)N[C@H](CC(C)C)C(=O)N[C@H](CO)C(=O)N[C@H](C)C(N)=O)[C@H](C)O)[C@H](C)O` [Peptide D40] were 2.8 µM, more than 92.8 µM and 2.9 µM (≈ 7.81 µg/mL).
